Source: ChEMBL document CHEMBL4184110 (Bioorg Med Chem Lett, 2018)

Biological target: T1, Luciferin 4-monooxygenase (Photuris pensylvanica, UniProt Q27757)
T1 sequence (Q27757 whole entry): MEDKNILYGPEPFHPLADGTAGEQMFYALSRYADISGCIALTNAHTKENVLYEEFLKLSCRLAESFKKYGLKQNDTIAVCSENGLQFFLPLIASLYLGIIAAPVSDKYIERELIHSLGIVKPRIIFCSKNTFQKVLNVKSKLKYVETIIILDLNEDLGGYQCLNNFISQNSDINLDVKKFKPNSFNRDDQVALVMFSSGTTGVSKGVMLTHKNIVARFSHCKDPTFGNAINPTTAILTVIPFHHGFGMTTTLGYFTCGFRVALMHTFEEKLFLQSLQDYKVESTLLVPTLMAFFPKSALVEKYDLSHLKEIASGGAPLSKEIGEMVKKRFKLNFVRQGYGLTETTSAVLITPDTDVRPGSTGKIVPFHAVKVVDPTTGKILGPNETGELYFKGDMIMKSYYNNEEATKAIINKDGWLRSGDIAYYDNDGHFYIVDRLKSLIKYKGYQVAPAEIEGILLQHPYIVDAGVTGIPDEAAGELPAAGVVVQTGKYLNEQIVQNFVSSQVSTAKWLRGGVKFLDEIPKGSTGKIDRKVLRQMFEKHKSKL
Test: Inhibition of Photuris pennsylvanica luciferase after 45 mins by CellTiter-Glo based luminescence assay
Details: 0.75 h; call rule not given here

SMILES | inhibition (INH)
COC(=O)Cc1ccc(OCc2oc(-c3cccc(OC)c3)nc2C)cc1 | Not Active
COC(=O)c1ccc(OCc2oc(-c3cccc(OC)c3)nc2C)cc1 | Not Active
